Test results published in US6765127B1, “Invertebrate intestinal mucin cDNA and related products and methods” (Boyce Thompson Institute for Plant Research, Inc., priority 1998, dated 2004).

Tests used:
[1] = system: T. ni PMs; assay: Extraction of chitin binding proteins from dissected PMs with Calcofluor
Excerpt: (§1) Calcofluor is a fluorescent dye with high chitin binding affinity. It has been utilized in studies on the formation of fungi and algal cell walls which are protective structures containing chitin and proteins. Calcofluor interferes with the cell wall formation by binding to nascent chitin molecules during cell wall formation, thus blocking chitin fibril assembly. Similar investigations on insect midgut chitin fibril formation using the chitin binding agent Calcofluor had not been approached until our recent studies were carried out. […] These isolated proteins have high chitin binding properties and are normally not extractable from fully formed PMs by detergents or extreme pH conditions. […] We believe that this phenomenon is due to the disruption of chitin fibril formation by the binding of Calcofluor to nascent chitin molecules as observed in other organisms.

[2] = system: T. ni larvae; assay: PM formation in larvae fed Calcofluor; format: in vivo; settings: Calcofluor fed to T. ni larvae
Excerpt: as §1

[3] = system: Lymantria dispar; assay: PM formation with Calcofluor; format: in vivo
[4] = system: Pseudaletia unipuncta; assay: PM formation with Calcofluor; format: in vivo
[5] = system: Helicoverpa zea; assay: PM formation with Calcofluor; format: in vivo
[6] = system: Hyphantria cunea; assay: PM formation with Calcofluor; format: in vivo
[7] = system: T. ni larvae; assay: Feeding T. ni larvae artificial diet containing Calcofluor; format: in vivo; settings: artificial diet containing 1% Calcofluor
[8] = system: T. ni larvae; assay: Baculovirus infection of Calcofluor treated larvae; format: in vivo; settings: Calcofluor disrupted PM formation
[9] = molecular target: TnGV enhancin (Trichoplusia ni granulosis virus, UniProt P29998); settings: 10 mM EDTA in incubation buffer
Description: The degradation of IIM was examined by SDS/PAGE analysis. A parallel treatment of IIM without enhancin was included as a control. […] To confirm the metalloprotease nature of enhancin, IIM was incubated with TnGV enhancin in the presence of 10 mM EDTA.

[10] = system: endogenous midgut proteases; assay: Resistance of IIM in PMs to endogenous digestive proteases; design: species or system T. ni
Excerpt: The stability of the IIM when exposed to degestive enzymes for long periods is aided by the O-linked carbohydrate moieties found in associated glycoproteins. […] Control treatments using PMS with inactivated or inhibited endogenous midgut proteases, confirmed that the degradation of IIM in the presence of O-glycosidase was a result of hydrolysis by endogenous digestive proteases, following removal of the protective carbohydrate moiety, galactose β(1-3) N-acetylgalactosamine.

[11] = system: T1, invertebrate intestinal mucin (IIM) from Trichoplusia ni peritrophic membranes (native protein)
T1 sequence: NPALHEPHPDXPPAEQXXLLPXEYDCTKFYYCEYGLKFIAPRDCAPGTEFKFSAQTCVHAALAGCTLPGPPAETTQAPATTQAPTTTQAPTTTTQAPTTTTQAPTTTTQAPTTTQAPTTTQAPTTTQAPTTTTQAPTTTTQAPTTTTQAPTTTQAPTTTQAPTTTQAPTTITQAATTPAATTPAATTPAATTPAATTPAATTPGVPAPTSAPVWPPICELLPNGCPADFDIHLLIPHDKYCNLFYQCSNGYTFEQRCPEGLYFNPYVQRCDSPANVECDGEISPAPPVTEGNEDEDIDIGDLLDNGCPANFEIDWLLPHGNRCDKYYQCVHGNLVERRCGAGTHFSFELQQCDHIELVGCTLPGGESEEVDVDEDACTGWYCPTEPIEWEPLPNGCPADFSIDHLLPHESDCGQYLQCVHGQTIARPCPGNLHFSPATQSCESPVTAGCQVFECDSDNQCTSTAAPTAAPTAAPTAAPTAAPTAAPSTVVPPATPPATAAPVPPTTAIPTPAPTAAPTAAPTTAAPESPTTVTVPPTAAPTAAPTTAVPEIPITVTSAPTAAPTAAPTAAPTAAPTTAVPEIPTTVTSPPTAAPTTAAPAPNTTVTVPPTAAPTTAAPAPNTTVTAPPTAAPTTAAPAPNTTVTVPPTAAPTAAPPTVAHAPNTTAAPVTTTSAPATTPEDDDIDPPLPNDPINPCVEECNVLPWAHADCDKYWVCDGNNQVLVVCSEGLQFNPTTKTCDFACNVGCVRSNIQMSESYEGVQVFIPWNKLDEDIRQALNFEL

[12] = system: mucin isolated from Pseudaletia unipuncta peritrophic membranes

TnGV enhancin, sequence (P29998 whole entry): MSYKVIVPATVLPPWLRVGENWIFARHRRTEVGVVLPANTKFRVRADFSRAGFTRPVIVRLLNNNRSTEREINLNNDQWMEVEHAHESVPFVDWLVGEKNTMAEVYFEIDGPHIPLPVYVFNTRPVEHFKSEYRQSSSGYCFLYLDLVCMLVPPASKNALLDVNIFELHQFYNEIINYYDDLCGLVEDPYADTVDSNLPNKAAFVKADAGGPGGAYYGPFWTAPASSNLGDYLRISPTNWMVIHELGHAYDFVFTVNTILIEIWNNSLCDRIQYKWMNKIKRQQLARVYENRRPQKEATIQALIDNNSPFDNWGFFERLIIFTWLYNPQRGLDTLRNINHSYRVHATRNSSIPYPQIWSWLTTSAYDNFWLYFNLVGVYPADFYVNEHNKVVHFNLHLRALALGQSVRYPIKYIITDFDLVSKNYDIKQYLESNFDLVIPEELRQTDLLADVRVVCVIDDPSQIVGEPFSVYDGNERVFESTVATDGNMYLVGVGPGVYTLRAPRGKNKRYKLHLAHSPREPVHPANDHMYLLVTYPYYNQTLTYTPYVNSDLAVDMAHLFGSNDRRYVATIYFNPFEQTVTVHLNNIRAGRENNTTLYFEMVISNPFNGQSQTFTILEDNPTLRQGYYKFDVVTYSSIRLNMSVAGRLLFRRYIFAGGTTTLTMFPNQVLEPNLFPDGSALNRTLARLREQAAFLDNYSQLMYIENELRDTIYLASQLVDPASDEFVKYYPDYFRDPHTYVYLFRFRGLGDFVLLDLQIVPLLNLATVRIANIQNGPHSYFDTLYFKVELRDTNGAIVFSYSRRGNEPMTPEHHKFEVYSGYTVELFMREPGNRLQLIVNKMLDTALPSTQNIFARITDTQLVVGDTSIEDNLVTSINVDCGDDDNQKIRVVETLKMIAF

O=S(=O)([O-])c1cc(Nc2nc(Nc3ccccc3)nc(N(CCO)CCO)n2)ccc1C=Cc1ccc(Nc2nc(Nc3ccccc3)nc(N(CCO)CCO)n2)cc1S(=O)(=O)[O-].[Na+].[Na+] [Calcofluor]
extraction of chitin binding proteins from dissected PMs [1]: extract and solubilize chitin binding proteins
PM formation [2]: completely inhibited and/or disrupted PM formation
PM disruption/inhibition [3]: further verified
PM disruption/inhibition [4]: further verified
PM disruption/inhibition [5]: further verified
PM disruption/inhibition [6]: further verified
insect mortality [7]: insect mortality
larval growth [7]: significantly slowed the growth
baculovirus infections in the larvae [8]: significantly increased baculovirus infections

O=C(O)CN(CCN(CC(=O)O)CC(=O)O)CC(=O)O [EDTA]
effect on digestion of IIM by TnGV enhancin [9]: blocked the digestion of the IIM

IIM: novel invertebrate intestinal mucin from T. ni peritrophic membranes; isoforms IIM14 and IIM22
degradation of IIM in PMs by endogenous digestive proteases ([10]; in the presence of O-glycosidase): quickly degraded
degradation of IIM in PMs by endogenous digestive proteases ([10]; sixteen hour incubation): no degradation

Trichoplusia ni granulosis virus (TnGV) enhancin
degradation of IIM examined by SDS/PAGE (in vitro, 1.25 µg/ml enhancin, 37° C., 3 hours or overnight) [11]: Incubation of IIM with TnGV enhancin showed that the enhancin had activity against IIM.
digestion of IIM in the presence of 10 mM EDTA [11]: The addition of 10 mM EDTA to the incubation buffer blocked the digestion of the IIM and confirmed the metalloprotease nature of enhancin.
degradation of the mucin [12]: This mucin is also degraded by the TnGV enhancin
